“And” between values parts separate entries of the source, which are not always exact repeats. Identical values can stand only once. Results filed as inconclusive are left out.
Tested on: BDF1 mice, colon carcinoma 38 sc, T/C %
Experiment: NCI In Vivo Anticancer Drug Screen. Data for tumor model Colon Carcinoma 38 (subcutaneous) in B6D2F1 (BDF1) mice
Conditions: endpoint: median tumor weight (est.), higher = larger tumour
Procedure: The antitumor activity of compounds was measured in mice bearing transplantable tumors. Survival or tumor size were measured and the results are expressed as the measurement made in the treated group (T) divided by the measurement made in the vehicle treated control group (C). The tumor model used in this assay is Colon Carcinoma 38 (subcutaneous) in B6D2F1 (BDF1) mice

[1] = dose: 3.75 mg/kg/injection, schedule: Q07DX002 (ip), vehicle: Klucel (hydroxypropylcellulose) (HPC)
[2] = dose: 7.5 mg/kg/injection, schedule: Q07DX002 (ip), vehicle: Klucel (hydroxypropylcellulose) (HPC)
[3] = dose: 50.0 mg/kg/injection, schedule: Q07DX003 (ip), vehicle: Klucel (hydroxypropylcellulose) (HPC)
[4] = dose: 100.0 mg/kg/injection, schedule: Q07DX003 (ip), vehicle: Klucel (hydroxypropylcellulose) (HPC)
[5] = dose: 200.0 mg/kg/injection, schedule: Q07DX003 (ip), vehicle: Klucel (hydroxypropylcellulose) (HPC)
[6] = dose: 400.0 mg/kg/injection, schedule: Q07DX003 (ip), vehicle: Klucel (hydroxypropylcellulose) (HPC)
[7] = dose: 50.0 mg/kg/injection, schedule: Q07DX002 (ip), vehicle: saline
[8] = dose: 25.0 mg/kg/injection, schedule: Q07DX003 (ip), vehicle: Klucel (hydroxypropylcellulose) (HPC)
[9] = dose: 25.0 mg/kg/injection, schedule: Q07DX002 (ip), vehicle: saline with Tween-80

## N[C@@H](Cc1ccc(N(CCCl)CCCl)cc1)C(=O)O
dose: 2.0 mg/kg/injection, schedule: Q07DX002 (ip), vehicle: Klucel (hydroxypropylcellulose) (HPC)
  T/C: 81 % of control
dose: 2.0 mg/kg/injection, schedule: Q07DX003 (ip), vehicle: saline
  T/C: 106 % of control
dose: 2.5 mg/kg/injection, schedule: Q07DX003 (ip), vehicle: saline with Tween-80
  T/C: 51 % of control
[1]
  T/C: 54 % of control and 61 % of control
dose: 4.0 mg/kg/injection, schedule: Q07DX002 (ip), vehicle: Klucel (hydroxypropylcellulose) (HPC)
  T/C: 107 % of control
dose: 5.0 mg/kg/injection, schedule: Q07DX003 (ip), vehicle: saline with Tween-80
  T/C: 44 % of control
[2]
  T/C: 33 % of control and 37 % of control
dose: 15.0 mg/kg/injection, schedule: Q07DX002 (ip), vehicle: Klucel (hydroxypropylcellulose) (HPC)
  T/C: 16 % of control
dose: 16.0 mg/kg/injection, schedule: Q07DX002 (ip), vehicle: saline
  T/C: 8 % of control (2×) and 11 % of control

## [N-]=[N+]=CC(=O)CCC(=O)C=[N+]=[N-]
[3]
  T/C: 39 % of control
[4]
  T/C: 45 % of control
[5]
  T/C: 50 % of control
[6]
  T/C: 19 % of control

## CCNC(=O)OCc1c(COC(=O)NCC)c(-c2ccc(Cl)c(Cl)c2)n2c1CCC2
dose: 3.12 mg/kg/injection, schedule: Q07DX002 (ip), vehicle: saline
  T/C: 74 % of control
dose: 6.25 mg/kg/injection, schedule: Q07DX002 (ip), vehicle: saline
  T/C: 104 % of control
dose: 12.5 mg/kg/injection, schedule: Q07DX002 (ip), vehicle: saline
  T/C: 86 % of control
dose: 25.0 mg/kg/injection, schedule: Q07DX002 (ip), vehicle: saline
  T/C: 62 % of control
[7]
  T/C: 42 % of control

## NC(=O)Oc1cccc(OC(N)=O)c1
dose: 25.0 mg/kg/injection, schedule: Q07DX003 (ip), vehicle: other
  T/C: 63 % of control
dose: 50.0 mg/kg/injection, schedule: Q07DX003 (ip), vehicle: other
  T/C: 103 % of control
dose: 100.0 mg/kg/injection, schedule: Q07DX003 (ip), vehicle: other
  T/C: 51 % of control
dose: 200.0 mg/kg/injection, schedule: Q07DX003 (ip), vehicle: other
  T/C: 68 % of control
dose: 400.0 mg/kg/injection, schedule: Q07DX003 (ip), vehicle: other
  T/C: 75 % of control

## Cc1cc2c(=O)c3ccccc3oc2c(C(=O)O)c1C
dose: 50.0 mg/kg/injection, schedule: Q07DX002 (ip), vehicle: sodium bicarbonate
  T/C: 69 % of control
dose: 100.0 mg/kg/injection, schedule: Q07DX002 (ip), vehicle: sodium bicarbonate
  T/C: 42 % of control
dose: 200.0 mg/kg/injection, schedule: Q07DX002 (ip), vehicle: sodium bicarbonate
  T/C: 37 % of control
dose: 400.0 mg/kg/injection, schedule: Q07DX002 (ip), vehicle: sodium bicarbonate
  T/C: 44 % of control

## Cc1nnc2ncccn12
[7]
  T/C: 84 % of control and 105 % of control
dose: 200.0 mg/kg/injection, schedule: Q07DX002 (ip), vehicle: saline
  T/C: 113 % of control and 102 % of control
dose: 400.0 mg/kg/injection, schedule: Q07DX002 (ip), vehicle: saline
  T/C: 81 % of control

## CC(CN1CC(=O)NC(=O)C1)N1CC(=O)NC(=O)C1 (configuration not stated)
[8]
  T/C: 84 % of control and 89 % of control
[3]
  T/C: 73 % of control and 85 % of control
[5]
  T/C: 51 % of control and 54 % of control
[6]
  T/C: 9 % of control and 15 % of control

## Cc1noc(N)c1N
dose: 25.0 mg/kg/injection, schedule: Q07DX002 (ip), vehicle: water
  T/C: 79 % of control
dose: 50.0 mg/kg/injection, schedule: Q07DX002 (ip), vehicle: water
  T/C: 82 % of control
dose: 100.0 mg/kg/injection, schedule: Q07DX002 (ip), vehicle: water
  T/C: 78 % of control
dose: 200.0 mg/kg/injection, schedule: Q07DX002 (ip), vehicle: water
  T/C: 101 % of control
dose: 400.0 mg/kg/injection, schedule: Q07DX002 (ip), vehicle: water
  T/C: 74 % of control
dose: 800.0 mg/kg/injection, schedule: Q07DX002 (ip), vehicle: water
  T/C: 95 % of control

## O=C1C(=O)c2ccccc2C(O)=C1CC=C(Cl)Cl
dose: 25.0 mg/kg/injection, schedule: Q07DX002 (ip), vehicle: other
  T/C: 81 % of control
dose: 50.0 mg/kg/injection, schedule: Q07DX002 (ip), vehicle: other
  T/C: 90 % of control
dose: 100.0 mg/kg/injection, schedule: Q07DX002 (ip), vehicle: other
  T/C: 124 % of control
dose: 200.0 mg/kg/injection, schedule: Q07DX002 (ip), vehicle: other
  T/C: 190 % of control

## O=[N+]([O-])/C=C\c1ccc2c(c1)OCO2
dose: 12.5 mg/kg/injection, schedule: Q07DX002 (ip), vehicle: Klucel (hydroxypropylcellulose) (HPC)
  T/C: 364 % of control
dose: 25.0 mg/kg/injection, schedule: Q07DX002 (ip), vehicle: Klucel (hydroxypropylcellulose) (HPC)
  T/C: 364 % of control
[8]
  T/C: 64 % of control and 71 % of control
dose: 50.0 mg/kg/injection, schedule: Q07DX002 (ip), vehicle: Klucel (hydroxypropylcellulose) (HPC)
  T/C: 185 % of control
dose: 100.0 mg/kg/injection, schedule: Q07DX002 (ip), vehicle: Klucel (hydroxypropylcellulose) (HPC)
  T/C: 93 % of control
[4]
  T/C: 88 % of control and 92 % of control
dose: 200.0 mg/kg/injection, schedule: Q07DX002 (ip), vehicle: Klucel (hydroxypropylcellulose) (HPC)
  T/C: 77 % of control
[5]
  T/C: 56 % of control
dose: 400.0 mg/kg/injection, schedule: Q07DX002 (ip), vehicle: Klucel (hydroxypropylcellulose) (HPC)
  T/C: 102 % of control

## NNC(=S)N/N=C/c1ccccn1
dose: 3.12 mg/kg/injection, schedule: Q07DX002 (ip), vehicle: suspension in saline
  T/C: 84 % of control
dose: 6.25 mg/kg/injection, schedule: Q07DX002 (ip), vehicle: suspension in saline
  T/C: 49 % of control
dose: 12.5 mg/kg/injection, schedule: Q07DX002 (ip), vehicle: suspension in saline
  T/C: 77 % of control
dose: 25.0 mg/kg/injection, schedule: Q07DX002 (ip), vehicle: suspension in saline
  T/C: 75 % of control
dose: 50.0 mg/kg/injection, schedule: Q07DX002 (ip), vehicle: suspension in saline
  T/C: 64 % of control

## CCC(C)(OC(C)=O)C(=O)OC1C(=O)OC2CC3C(C)=CC(O)C(O)C3(C)C3C4(O)OCC23C1C(C)C4O (configuration not stated)
dose: 0.12 mg/kg/injection, schedule: Q07DX002 (ip), vehicle: saline + alcohol
  T/C: 80 % of control
dose: 0.25 mg/kg/injection, schedule: Q07DX002 (ip), vehicle: saline + alcohol
  T/C: 48 % of control
dose: 0.5 mg/kg/injection, schedule: Q07DX002 (ip), vehicle: saline + alcohol
  T/C: 79 % of control
dose: 1.0 mg/kg/injection, schedule: Q07DX002 (ip), vehicle: saline + alcohol
  T/C: 43 % of control
dose: 2.0 mg/kg/injection, schedule: Q07DX002 (ip), vehicle: saline + alcohol
  T/C: 75 % of control
dose: 4.0 mg/kg/injection, schedule: Q07DX002 (ip), vehicle: saline + alcohol
  T/C: 105 % of control

## COC1C(C)OC(OC2CC(C)(O)Cc3cc4c(c(O)c32)C(=O)c2c(O)cc3c(c2C4=O)OC2OC3(C)C(O)C(N(C)C)C2O)C(OC)C1(C)OC (configuration not stated)
dose: 0.62 mg/kg/injection, schedule: Q07DX002 (ip), vehicle: other
  T/C: 53 % of control
dose: 1.25 mg/kg/injection, schedule: Q07DX002 (ip), vehicle: other
  T/C: 81 % of control
dose: 5.0 mg/kg/injection, schedule: Q07DX002 (ip), vehicle: other
  T/C: 83 % of control
dose: 10.0 mg/kg/injection, schedule: Q07DX002 (ip), vehicle: other
  T/C: 89 % of control

## C=C1C(=O)OC2CC1CCC1(C)OC1CCC(C)=CCCC2(C)O (configuration not stated)
[1]
  T/C: 155 % of control
[2]
  T/C: 155 % of control
dose: 30.0 mg/kg/injection, schedule: Q07DX002 (ip), vehicle: Klucel (hydroxypropylcellulose) (HPC)
  T/C: 99 % of control
dose: 60.0 mg/kg/injection, schedule: Q07DX002 (ip), vehicle: Klucel (hydroxypropylcellulose) (HPC)
  T/C: 123 % of control

## Cn1c2nc(=O)n(-c3ccccc3)c(=O)c-2nc2c1CCCC2
[9]
  T/C: 72 % of control
dose: 100.0 mg/kg/injection, schedule: Q07DX002 (ip), vehicle: saline with Tween-80
  T/C: 70 % of control and 74 % of control
dose: 200.0 mg/kg/injection, schedule: Q07DX002 (ip), vehicle: saline with Tween-80
  T/C: 90 % of control

## Nc1ccc(Cl)cc1N
dose: 12.5 mg/kg/injection, schedule: Q07DX002 (ip), vehicle: saline with Tween-80
  T/C: 75 % of control and 97 % of control
[9]
  T/C: 78 % of control and 92 % of control

— PubChem BioAssay AID212 (DTP/NCI, 2004)
